Experimental data as given in the supplement of paper PMC8837787.

Each compound was assayed on Saccharomyces cerevisiae ABC16-Green Monster (assay: growth inhibition at single dose (up to 150 µM), below the 70% cut-off for dose-response; higher = more potent). Conditions: 18 h; 30 °C; YPD.
In short: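 The entry is percent growth inhibition of drug-sensitive S. cerevisiae ABC16-Green Monster cells. After overnight growth in YPD at 30 °C, cells were diluted to OD600 0.1–0.2 and exposed to each library compound at 150 µM in 200 µl per well, in biological duplicates with untreated cultures beside them, and OD600 was read at 0 h and after 18 h at 30 °C. Any compound under 70% in both replicates was not carried to dose-response.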
`C[C@@H]1[C@H](O)[C@@H](C)/C=C/C=C/C=C/C=C/C=C/C=C/C=C/[C@H](O[C@@H]2O[C@H](C)[C@@H](O)[C@H](N)[C@@H]2O)C[C@@H]2O[C@](O)(C[C@@H](O)C[C@@H](O)[C@H](O)CC[C@@H](O)C[C@@H](O)CC(=O)O[C@H]1C)C[C@H](O)[C@H]2C(=O)O` was tested, and the “growth inhibition at single dose” value was under 70%. For `CC(=O)NCC1CN(c2ccc(-c3ccc(CO)cc3)c(F)c2)C(=O)O1` (centres undefined), the “growth inhibition at single dose” value was under 70%. `O=C(CC1Sc2ccccc2NC1=O)NCCCn1ccc2ccccc21` (centres undefined) was tested, and the “growth inhibition at single dose” value was under 70%. `Cc1ccc(NC(=O)Nc2cccc(Cl)c2)cc1F` was tested, and the “growth inhibition at single dose” value was under 70%. In the case of `CC(C(=O)N1CCCC1)N1CCN(S(=O)(=O)c2ccc(C(C)(C)C)cc2)CC1` (centres undefined), the “growth inhibition at single dose” value is reported as under 70%. In the case of `Cc1ccc(C2CC(C(F)(F)F)n3nc(C(=O)N4CCN(C(c5ccccc5)c5ccccc5)CC4)cc3N2)cc1` (centres undefined), the “growth inhibition at single dose” value is reported as under 70%. `c1ccc(-c2ccc(-c3nc4ccccc4[nH]3)cc2)cc1` was tested, and the “growth inhibition at single dose” value was under 70%. With `COc1cc(-c2nc(-c3ccccc3)c(-c3ccccc3)[nH]2)cc(OC)c1O` the “growth inhibition at single dose” value was under 70%. `O=C(Nc1ccsc1C(=O)NC1CCCCC1)c1ccc(F)cc1` was tested, and the “growth inhibition at single dose” value was under 70%. With `COc1ccc(NC2=NC(=O)/C(=C/c3cc(C)n(-c4cccc(Cl)c4Cl)c3C)S2)cc1` the “growth inhibition at single dose” value was under 70%. `CCn1c2c(c(=N)c3c1CCC3)CCCC2` was tested, and the “growth inhibition at single dose” value was under 70%. With `COc1cccc(C=Cc2nc(=O)c3ccccc3o2)c1OC` the “growth inhibition at single dose” value was under 70%. In the case of `Cc1ccc(Nc2nc(NCCO)c3ccccc3n2)cc1C`, the “growth inhibition at single dose” value is reported as under 70%. `COc1cccc(C2(C)Nc3ccccc3-c3nc4ccccc4n32)c1` (centres undefined) was tested, and the “growth inhibition at single dose” value was under 70%. In the case of `Cc1nc(-c2ccccn2)nc(NCCc2ccc(S(C)(=O)=O)cc2)c1Cl`, the “growth inhibition at single dose” value is reported as under 70%. In the case of `CCOC(=O)c1c[nH]c2c(F)cc(F)cc2c1=O`, the “growth inhibition at single dose” value is reported as under 70%. For `Cc1ccc(CN2CCC(C(=O)Nc3ccc(-c4cc5ccccc5[nH]4)cc3)CC2)o1`, the “growth inhibition at single dose” value was under 70%. `CCOc1c(Cl)cc(CNCC(O)c2ccccc2)cc1OC` (centres undefined) was tested, and the “growth inhibition at single dose” value was under 70%. In the case of `Cc1ccc2c(c1)nc1n2CN(CCN2CCOCC2)CN1Cc1ccccc1`, the “growth inhibition at single dose” value is reported as under 70%. `O=C(Nc1ccc(N2CCN(c3ncccc3C(F)(F)F)CC2)nc1)c1cccs1` was tested, and the “growth inhibition at single dose” value was under 70%. `O=C(Nc1ccc(N2CCOCC2)nc1)c1ccc(S(=O)(=O)N2CCCc3ccccc32)cc1` was tested, and the “growth inhibition at single dose” value was under 70%. With `Nc1nccc2ccc(Oc3ccncc3)cc12` the “growth inhibition at single dose” value was under 70%. With `OC1CCCCC1C1(NC(=S)Nc2ccccc2)CCCCC1` (centres undefined) the “growth inhibition at single dose” value was under 70%. For `Cc1nn(C)c(C)c1NS(=O)(=O)c1c(Cl)cc(-c2ccnc(N3CCNCC3)c2)cc1Cl`, the “growth inhibition at single dose” value was under 70%. In the case of `COC(=O)c1cc(C(=O)OC)cc(-n2c(C)cc(C(=O)Cn3ncc(Cl)c(Cl)c3=O)c2C)c1`, the “growth inhibition at single dose” value is reported as under 70%. For `O=c1c2ccccc2cnn1-c1nc2ccccc2s1`, the “growth inhibition at single dose” value was under 70%. With `CCN(Cc1ccccc1)C1CCN(Cc2cc(Br)ccc2O)CC1` the “growth inhibition at single dose” value was under 70%. In the case of `CCOc1ccc(OCC(=O)Nc2cc(C)cc(C)c2)cc1`, the “growth inhibition at single dose” value is reported as under 70%. In the case of `FC(F)(F)c1nc(N2CCN(c3ccncc3)CC2)c2ccccc2n1`, the “growth inhibition at single dose” value is reported as under 70%. For `CCOC(=O)c1[nH]c(C)c(C(=O)CN(C)S(=O)(=O)c2c(C)noc2C)c1C`, the “growth inhibition at single dose” value was under 70%. With `C=C(C)COc1ccc(-c2onc(C)c2-c2ccc(OC)c(OC)c2)c(O)c1` the “growth inhibition at single dose” value was under 70%. In the case of `CCCN(CCC)CCCNC(=O)c1cc2c(-c3ccc(OC)c(OC)c3)nn(C)c2s1`, the “growth inhibition at single dose” value is reported as under 70%. In the case of `CC(C)(C)c1nc(-c2ccc(N)cc2)no1`, the “growth inhibition at single dose” value is reported as under 70%. In the case of `CCOc1ccccc1CNC(=O)C1c2ccccc2C(=O)N(CC(C)C)C1c1cccs1` (centres undefined), the “growth inhibition at single dose” value is reported as under 70%. In the case of `N#CCNC(=O)c1ccc(-c2ccnc(Nc3ccc(N4CCOCC4)cc3)n2)cc1` [Momelotinib], the “growth inhibition at single dose” value is reported as under 70%. With `Cc1ccc2c(c1)s/c(=N/C(=O)c1cccs1)n2C` the “growth inhibition at single dose” value was under 70%. In the case of `O=C(N[C@H](Cc1ccccc1)C(=O)Nc1ccccc1N1CCOCC1)c1cccs1`, the “growth inhibition at single dose” value is reported as under 70%. In the case of `CC(C)(C(=O)Nc1ccc(F)cc1)n1cc(-c2ccccc2F)cn1`, the “growth inhibition at single dose” value is reported as under 70%. `Cc1nc(Sc2ncnc3sc4c(c23)CCC4)sc1CC(N)=O` was tested, and the “growth inhibition at single dose” value was under 70%. `Cc1csc(SCC(=O)c2cc(C)n(-c3ccccc3)c2C)n1` was tested, and the “growth inhibition at single dose” value was under 70%. `c1ccc(C2=Nc3ccccc3N=C(c3ccccc3)c3ccccc32)cc1` was tested, and the “growth inhibition at single dose” value was under 70%. With `CCCCc1c(C)nc2c(OC)cccc2c1O` the “growth inhibition at single dose” value was under 70%. With `COc1cc(CNC(=O)c2scnc2C)ccc1OC1CCCC1` the “growth inhibition at single dose” value was under 70%. `Cc1ccc2[nH]c3c(c2c1)CCCC3NCCCN(C)C` (centres undefined) was tested, and the “growth inhibition at single dose” value was under 70%. With `COc1cc2c3cc1Oc1c(OC)c(OC)cc4c1C(Cc1ccc(O)c(c1)Oc1ccc(cc1)CC3N(C)CC2)N(C)CC4` (centres undefined) the “growth inhibition at single dose” value was under 70%. In the case of `CC(=O)c1sc(NC(=O)Nc2ccc(C)cc2C)nc1C`, the “growth inhibition at single dose” value is reported as under 70%. With `COc1ccc2nc(N)nc(C)c2c1` the “growth inhibition at single dose” value was under 70%. For `CCN(CC)c1ccc(NC(=O)c2cccs2)cc1`, the “growth inhibition at single dose” value was under 70%. For `O=C(CN1CCN(C(=O)/C=C/c2sc3ccccc3c2Cl)CC1)NC1CC1`, the “growth inhibition at single dose” value was under 70%. `O=C(Nc1ccc(F)c(Cl)c1)c1[nH]nc2ccccc12` was tested, and the “growth inhibition at single dose” value was under 70%. With `CC1(C)OB(O)c2ccc(C3=NOC(c4cc(Cl)c(F)c(Cl)c4)(C(F)(F)F)C3)cc21` (centres undefined) the “growth inhibition at single dose” value was under 70%. For `COCc1[nH]n2c3cccc(=O)c-3nnc2c1-c1ccccc1`, the “growth inhibition at single dose” value was under 70%. In the case of `O=C(NNc1cccc(F)n1)C(F)(F)F`, the “growth inhibition at single dose” value is reported as under 70%. For `CCCCS(=O)(=O)Nc1ccc2cnn(C)c2c1`, the “growth inhibition at single dose” value was under 70%. For `Cc1ccc2cc(C3NC(=O)c4ccccc4N3)c(Cl)nc2c1` (centres undefined), the “growth inhibition at single dose” value was under 70%. In the case of `O=C(NC1CC1)c1ccc(CN(Cc2ccco2)Cc2nc(-c3ccc(F)cc3)no2)cc1`, the “growth inhibition at single dose” value is reported as under 70%. With `Cc1cc(NC(=O)c2cccc(C(F)(F)F)c2)n(-c2nc(-c3ccc4c(c3)OCO4)cs2)n1` the “growth inhibition at single dose” value was under 70%. `O=C(Nc1ccc(N2CCCC2)cn1)C1CC=CCC1` (centres undefined) was tested, and the “growth inhibition at single dose” value was under 70%. For `O=C1COCc2ccc(Br)cc2N1Cc1ccc(C(F)(F)F)cc1`, the “growth inhibition at single dose” value was under 70%. With `Cc1c(C)n(CCCO)c2ncn3nc(-c4ccccc4)nc3c12` the “growth inhibition at single dose” value was under 70%. `COc1ccc2c(c1)OC(O)(C(F)(F)C(F)(F)F)CC2=O` (centres undefined) was tested, and the “growth inhibition at single dose” value was under 70%. `COC(=O)Cc1[nH]n(-c2nc3ccccc3s2)c(=O)c1C(C)=NCCO` was tested, and the “growth inhibition at single dose” value was under 70%. For `Cc1nn(-c2ccccc2)c(C)c1-c1nc(-c2ccccc2)no1`, the “growth inhibition at single dose” value was under 70%. In the case of `NCCC(O)C(=O)N[C@@H]1C[C@H](N)[C@@H](OC2O[C@H](CN)[C@@H](O)[C@H](O)[C@H]2O)[C@H](O)C1OC1O[C@H](CO)[C@@H](O)[C@H](N)[C@H]1O` (some centres undefined), the “growth inhibition at single dose” value is reported as under 70%. With `Cc1ccc(C(=O)Nc2ccc(S(=O)(=O)O)c3cc(S(=O)(=O)O)cc(S(=O)(=O)O)c23)cc1NC(=O)c1cccc(NC(=O)Nc2cccc(C(=O)Nc3cc(C(=O)Nc4ccc(S(=O)(=O)O)c5cc(S(=O)(=O)O)cc(S(=O)(=O)O)c45)ccc3C)c2)c1` the “growth inhibition at single dose” value was under 70%. `COc1ccc(S(=O)(=O)NN(C)c2nc(C(F)(F)F)nc3ccccc23)cc1` was tested, and the “growth inhibition at single dose” value was under 70%. In the case of `CC(Oc1cccc(Cl)c1)C(=O)Nc1ccc2oc(-c3ccncc3)nc2c1` (centres undefined), the “growth inhibition at single dose” value is reported as under 70%. For `Cc1cc(N2CCCC2)nc(Nc2ccc(NC(=O)CCc3ccccc3)cc2)n1`, the “growth inhibition at single dose” value was under 70%. `CCOC(=O)c1cnc2ccc(CC)cc2c1O` was tested, and the “growth inhibition at single dose” value was under 70%. For `O=C(Nc1ccc(Cl)cc1)N1CCN(c2ccc3nncn3n2)CC1`, the “growth inhibition at single dose” value was under 70%. In the case of `CCCCCCc1cc2cc(-c3csc(C=Cc4ccccc4)n3)c(=O)oc2cc1O`, the “growth inhibition at single dose” value is reported as under 70%. In the case of `O=C(NCCCc1nc2ccccc2[nH]1)c1[nH]nc2ccccc12`, the “growth inhibition at single dose” value is reported as under 70%. With `CCOc1cc2c(cc1OCC)C(c1cc(C)c(O)c(C)c1)NCC2` (centres undefined) the “growth inhibition at single dose” value was under 70%. With `CCc1sc(C(=O)Nc2cnc3ccccc3c2)cc1C` the “growth inhibition at single dose” value was under 70%. In the case of `COc1ccccc1CNC(=O)CCn1c(=O)[nH]c2ccccc2c1=O`, the “growth inhibition at single dose” value is reported as under 70%. For `CCN(CC)CCCN1CCN(C(=O)c2cccc(-c3noc(C(F)(F)F)n3)c2)CC1`, the “growth inhibition at single dose” value was under 70%. In the case of `O=C(NC1CCCCC1)N1CCN(Cc2ccc3c(c2)OCO3)CC1`, the “growth inhibition at single dose” value is reported as under 70%. In the case of `COc1ccc(C2NCCc3c2[nH]c2ccccc32)cc1CN1CCN(c2ccc(F)cc2)CC1` (centres undefined), the “growth inhibition at single dose” value is reported as under 70%. In the case of `O=C(Nc1cccc2c[nH]nc12)c1cnc(OCC(F)(F)F)c(Cl)c1`, the “growth inhibition at single dose” value is reported as under 70%. In the case of `Cc1cc(C(=O)NCc2nnc3ccccn23)c(C)n1C1CCCCC1`, the “growth inhibition at single dose” value is reported as under 70%. With `CC(=O)N(CCN(C(=O)c1ccc(F)cc1)c1ccccc1)c1ccccc1` the “growth inhibition at single dose” value was under 70%. In the case of `Cc1ccc(NC(=O)c2cc(C(C)(C)C)n(-c3ccccc3)c2C)cc1`, the “growth inhibition at single dose” value is reported as under 70%. In the case of `COc1cc2c(cc1OC)C1=NNC(=O)C1=NC(C)(C)C2`, the “growth inhibition at single dose” value is reported as under 70%. `CC1(C)Cc2c(c(N3CCOCC3)nc3snc(Br)c23)CO1` was tested, and the “growth inhibition at single dose” value was under 70%. `O=C1c2ccc3c4c(ccc(c24)C(=O)N1CCCCO)C(=O)N(CCCCO)C3=O` was tested, and the “growth inhibition at single dose” value was under 70%. In the case of `Cc1ccc(NS(=O)(=O)c2ccc(C(=O)Nc3ncccc3O)cc2)cc1C`, the “growth inhibition at single dose” value is reported as under 70%. For `Cc1nn(Cc2ccccc2)c(Cl)c1C(=O)NC1CCCCCC1`, the “growth inhibition at single dose” value was under 70%. For `CCC(O)c1ccc(Br)cc1NC(=O)c1cccc(Cl)c1` (centres undefined), the “growth inhibition at single dose” value was under 70%. With `COc1cccc(Cn2nc(C(=O)NC3CC3)c3c2CCN(Cc2cc4c(cc2Cl)OCO4)C3)c1` the “growth inhibition at single dose” value was under 70%.
